Data set [1] has as its system intestinal absorption of copper. Conditions: cited from earlier work.
The conditions of data set [2]: infants at one month of age, supplemented 80 μg Cu/kg daily for 15 days; cited from earlier work.
Data set [3] is described as follows: Dissolution of ATTM crystals of different size in acidic buffer (pH 2). It counts as physicochemical. The protocol:
After 1 hour of incubation in acidic buffer, more than 50% of ATTM was found.
• 1. ATTM purchased from Sigma-Aldrich was sieved using a 1700 micron screen. […] ATTM crystals were ground so that no crystals were larger than 50 microns. These will be referred to as small crystals. • 3. 100 mg of each type of crystal was weighed and added to separate 1.7 ml plastic centrifuge tubes. • 4. 1 ml of buffer pH 2 was added to each tube without mixing. • 5. After 1 hour, each tube was centrifuged at 14,000 rpms for 1 minute. • 6. The supernatant was removed and analyzed for ATTM content. • 7. To the pellet of each tube was added 1 ml of phosphate buffer pH 7.4 • 8. Each solution was vortex-mixed. • 9. Each tube was centrifuged at 14,000 rpms for 1 min. • 10. The supernatant from each tube was analyzed for ATTM content. Analysis: • 1. A 1 to 100 dilution of all supernatants were made in phosphate buffer pH 7.4. • 2. 2 ml of each diluted sample were added to plastic cuvettes. • 3. Absorbance was measured at 467 nm. • 4. The extinction coefficients (EC) of ATTM for each sample were calculated.
Observations: • 1. When acid buffer was added to small crystals of ATTM, the solution turned immediately black and a sulfur odor could be detected. • 2. […] This was observed by the 1 hour incubation time point. • 3. When acid buffer was added to large crystals of ATTM, a small amount of black coloration leached from the crystal. […] Conclusions: • 1. […] In acid, un-dissolved ATTM from large crystals can be liberated with a secondary dissolution in neutral media. • 5.

Data set [4] relates to free copper in the CNS. As to conditions: in vivo.
A short description of data set [5]: Example 6: colour stability of crushed versus lyophilized tetrathiomolybdate. In kind it is physicochemical. The text has this: Tetrathiothiomolybdate crystals are either crushed to a powder, that is initially orange in color, or placed in water to dissolve yielding a bright orange solution, which is filtered and lyophilized, which results in a dry powder orange in color.

Data set [6] is described as follows: Storage stability of tetrathiomolybdate under typical atmospheric temperature and humidity. In kind it is physicochemical. Conditions: within three months. From the text:
Tetrathiohiomolydates, under typical atmospheric condition of temperature and humidity are unstable and the active ingredient can undergo oxidation to molybdenum sulfoxide. Molydbdenum sulfoxide is not active as a copper binding agent and therapeutic agent for reduing body copper levels in humans. Tetrathiomolybdates can be expected to lose approximately 10% of its potency within three months if stored under such conditions.

The nature of data set [7]: Example 5: tetrathiomolybdate crystals and capsule in simulated stomach acid. In kind it is physicochemical. The protocol:
Large (>1000 microns) and small (<50 microns) dark orange crystals of tetrathiomolybdate are placed in a solution of a commercially available simulated stomach acid. […] The dissolution properties of the large verses small crystals are clearly distinct. To further examine the properties of a methylcellulose capsule containing 20 mg of tetrathiomolybdate and 180 mg of excipient containing a heterogenous size range (200-800 microns) of tetrathiomolybdate crystals was examined in a dissolution chamber initially containing simulated stomach acid. The gelatin capsule dissolved within 15 minutes. Tetrathiothiomolybdate recovery was assessed by UV/Visible absorption periodically over 3 hours, a time consistent with the initiation of gastric emptying and the initial phase of postprandial absorption. […] At three hours the remaining gastric juice was made alkaline by adjusting the pH to 8-9, the solution turned orange to red and was assessed by UV/V is spectroscopy to determine the recover of tetrathiothiomolybdate, which was approximately 7% of the amount in the capsule.
When the same experiment is performed with small crystals, much less than 7% of parent compound is recovered, while when the experiment is performed with large crystals much greater than 7% of parent compound is recovered.

For data set [8] the following is noted: current formulations; cited from earlier work.
The conditions of data set [9]: oral dose of Cu^64 as copper acetate, humans; cited from earlier work.
Data set [10] concerns neural tube defects. As to conditions: adequate intake by mothers prior to pregnancy; cited from earlier work.
The nature of data set [11]: Example 14: stability of ATTM capsules after eight weeks. Conditions: stored at RT and ambient RH. In kind it is physicochemical.
Data set [12] can be described thus: Example 13: dissolution of ATTM capsule in artificial gastric fluid. In kind it is physicochemical. On the procedure: FIG. 1 is a plot of the dissolution profile of an ammonium tetrathromolybdate (ATTM) capsule in gastric juice in accordance with Example 13 hereof; and
We performed a dissolution experiment using a capsule containing 20 mg of ammonium tetrathiomolybdate plus excipient. ATTM crystals used were 500 microns or smaller. […] After, 3 hours of dissolution, black particles released from the capsule were found suspended in solution. After neutralization of the gastric media to pH 9, these black particles disappeared resulting in about 10% of ATTM being recovered.
• 1. […] Conclusion: ˜90% of ATTM is destroyed in the stomach. Method: Material Studied • 1. Study was performed on R&D Pipex formulated capsule of ATTM. • 2. The ATTM was milled through a 500 micron sieve. • 3. The capsule contained ˜20 mg of ATTM and 180 mg of excipient. Dissolution Conditions • 1. Media: 1 liter of UPS artificial gastric fluid pH 2 • 2. Temp: 22° C. • 3. Paddle RPMs: 100 • 4. Dissolution time: 3 hours Procedure • 1. A #2 QualiCaps capsule available from Shionogi Europe, B.V. was mechanically dropped into media at time zero • 2. 1 ml of media was then collected at 1, 2, 4, 8, 16, 30, 45, 75, 120 and 180 min • 3. Following 3 hours of dissolution, the pH was raised to 9 using NaOH pellets. • 4. The media was paddled for 1 hour. • 5. After 1 hour a sample was collect for analysis Analysis • 1. 400 ul of collected media was diluted to 2 ml with phosphate buffer, pH 7 • 2. The solution was placed in a cuvette and scanned between 260 and 600 nm. • 3. Absorbance was measured at 367 nm. • 4. The extinction coefficient was calculated using Beer's law. • 5. The extinction coefficient of a reference sample in a capsule is 13500 cm^−1 M^−1 Conclusion: • 1. Any ATTM that dissolves in media at pH 2 is immediately destroyed. • 2. Some of the ATTM floated in the media as black specks following 3 hours of dissolution. • 3. After three hours when the pH of the solution was raised to pH 9, the color of the solution changed to an orange color. • 4. This presumably is stable ATTM that has dissolved. • 5. […]

[13] abbreviates: pellet taken up in phosphate buffer pH 7.4.
Where [14] appears, read: pellet taken up in phosphate buffer pH 7.4, 1 to 100 dilution.
[15] abbreviates: supernatant after 1 hour in buffer pH 2.
[16] abbreviates: supernatant after 1 hour in buffer pH 2, 1 to 100 dilution.
Setting [17] is: 50 mg immediate release capsules three times per day away from meals and beverages, Wilson's disease patients.
[18] abbreviates: crystals 1700 microns or greater.

“Also recorded” adds a separate entry of the source.

Turning to `[Zn]` [zinc], the “copper balance induced, average” value in data set [1] (Wilson's patients, from the two week point) was −0.35 mg daily. The “time to achieve intestinal metallothionein induction and a negative copper balance” value in data set [1] (Wilson's patients) was “approximately two”. The “time to bring urine copper and nonceruloplasmin plasma copper down to subtoxic levels” value in data set [1] (zinc therapy) is reported as “six”.
Regarding `O=S(=O)([O-])[O-].[Cu+2]` [copper sulfate], the “Mean (+SD) copper absorption” value in [2] is recorded as 74.8+15.2%.
For the molecule `[NH4+].[NH4+].[SH-].[SH-].[S]=[Mo]=[S]` [Large Crystal, ammonium tetrathiomolybdate], the “Extinction Coefficient” value in data set [3] (setting [13]) is recorded as 7,000; in data set [3] (setting [15]) it was 0. Moreover, the “Absorbance at 467” value in data set [3] (setting [14]) amounted to 0.310; in data set [3] (setting [16]) it was 0.
With `NCCNCCNCCN` [trientine], the “levels of free copper in the CNS” value in data set [4] is “increase the levels of free copper in the CNS”.
Turning to `[SH-].[SH-].[S]=[Mo]=[S]` [tetrathiomolybdate], the colour stability entry in data set [5] (crushed crystals, nitrogen overlay, room temperature, closed tube) is listed as “slowly turn black within a few day”; in data set [5] (lyophilized dry powder, similar conditions), “remains orange for over a month”; in data set [5] (protected from atmosphere and moisture by covering with mineral), “remains orange (i.e. not oxidized) for over a month”. Moreover, in [6], the loss of potency result is “approximately 10%”. Further, the “blocking of copper absorption compared with zinc” value in [1] (human, in vivo) is “more effective blocker of copper absorption than zinc”. In addition, the “detection in simulated gastric samples, removed and neutralized” value in data set [7] (any time point over three hours, UV/Visible absorption) is “not detectable”. In data set [7] (capsule with 20 mg tetrathiomolybdate and 180 mg excipient, simulated stomach acid), this molecule registered a capsule dissolution time of at most 15 min. In addition, the “behaviour in simulated stomach acid” value is on record as “remain relatively intact” in data set [7] (large (>1000 microns) crystals) and “form a disaggregate cloudy black solution” in data set [7] (small (<50 microns) crystals).
Consider `CC(C)(S)[C@@H](N)C(=O)O` [d-pencillamine, d-penicillamine], for which the “levels of free copper in the CNS” value in data set [4] is on record as “increase the levels of free copper in the CNS”.
As for `CC(=O)[O-].CC(=O)[O-].[Zn+2]` [zinc acetate], in data set [1] (setting [17]), the “mean Cu^64 uptake” value is 0.82 % of the administered dose and the mean copper balance is -0.44 mg/day. In addition, in data set [1] (once daily dosing of immediate release capsules), the control of copper entry is “does not provide adequate control of copper”. In [8], the stomach irritability was ~10 % of patients.
With copper acetate, in [9], the “oral dose absorbed from the gastrointestinal tract” value was “about 65%” and the “oral dose absorbed from the gastrointestinal tract, range” value is listed as 15-97%.
As to `Nc1nc2ncc(CNc3ccc(C(=O)N[C@@H](CCC(=O)O)C(=O)O)cc3)nc2c(=O)[nH]1` [folic acid], in data set [10], the “reduction of the incidence of NTDs” value is recorded as “up to 70%”.
Take `[NH4+].[NH4+].[SH-].[SH-].[S]=[Mo]=[S]` [Small Crystal, ammonium tetrathiomolybdate]: the “Extinction Coefficient” value in [3] (setting [13]) and in data set [3] (setting [15]) was 0 in each case. Further, the “Absorbance at 467” value in data set [3] (setting [14]) and in data set [3] (setting [16]) was 0 throughout.
As for `[NH4+].[NH4+].[SH-].[SH-].[S]=[Mo]=[S]` [ATTM, ammonium tetrathiomolybdate], the “survival of dissolved ATTM in acid media” value in data set [3] is reported as “does not survive in acid media”. In [3] (crystals 50 microns or less), the “ATTM found after 1 hour of incubation in acidic buffer” value was “no ATTM was found” and the “dissolution behaviour in acidic buffer (pH 2)” value is “dissolved rapidly; also recorded: dissolves in Acid media but soon forms an insoluble precipitate”. In addition, in data set [3] (setting [18]), the “ATTM found after 1 hour of incubation in acidic buffer” value was “more than 50%” and the “dissolution behaviour in acidic buffer (pH 2)” value is on record as “dissolved slowly; also recorded: forms a black coating which seems to resist dissolution”. In addition, in data set [11], the “stability after 8-Weeks” value is recorded as “completely stable”. Moreover, the “ATTM recovered after neutralization of the gastric media to pH 9” value in data set [12] (after 3 hours of dissolution) was “about 10%”. In data set [12] (artificial gastric fluid over three hours), this molecule came in with an ATTM destroyed of around 90%. In data set [12] (artificial gastric fluid pH 2, 22° C., up to 3 hours, crystals 500 microns or smaller), the “ATTM recovered dissolved in the gastric dissolution medium” value is “No ATTM was recovered; also recorded: No ATTM was found dissolved”.
